For one assay, the target named is c-Met tyrosine kinase (Homo sapiens, UniProt P08581). Put plainly: c-Met kinase activity on molecular level (ELISA, Poly(Glu,Tyr)4:1 substrate). It counts as biochemical. Conditions: ATP 5 μM, 37° C., 1 h. On the procedure:
Poly(Glu, Tyr)4:1 as an enzyme substrate was diluted by potassium ion-free PBS (10 mM, sodium phosphate buffer, 150 mM NaCl, pH7.2-7.4) into a solution of 20 μg/ml. […] After the liquid in wells was removed, the plate was washed three time by T-PBS (PBS solution containing 0.1% Tween-20) at 200 μl/well, 5 min for each time. The ELISA plate was then dried in an oven at 37° C. for 1-2 h.
Each well was added with 50 μL of ATP solution diluted by reaction buffer (50 mM HEPES pH 7.4, 50 mM MgCl2, 0.5 mM MnCl2, 0.2 mM Na3VO4, 1 mM DTT) at a final concentration of 5 μM. Compound diluted by 1% DMSO into a suitable concentration was added at 10 μl/well and then c-Met tyrosine kinase protein diluted by 40 μl of reaction buffer was added. The plate was placed on a shaking table (100 rpm) at 37° C. and incubated for 1 h, and then washed three times by T-PBS. For each assay, triplicate wells without enzyme were used as blank control and wells having the corresponding DMSO concentration without compound were used as negative control. Primary antibody PY99 (p-Tyr (PY99), Cell Signaling Technology, 1:1000 diluted in 5 mg/mL BSA T-PBS) was added at 100 μl/well. The plate was then placed on a shaking table at 37° C. and incubated for 0.5 h, and washed by T-PBS. Secondary antibody horseradish peroxidase-conjugated goat anti-mouse IgG (1:2000 diluted in 5 mg/mL BSA T-PBS) was added at 100 μl/well. The plate was then placed on a shaking table at 37° C. for 0.5 h and washed three times by T-PBS. 2 mg/mL of OPD developer (diluted by a 0.1M citric acid-sodium citrate buffer (pH=5.4) containing 0.03% of H2O2) was added at 100 μl/well, and the plate was kept in dark at 25° C. for 1-10 min. OPD was ultrasonically dissolved and the developer solution was prepared just before use. 2 M of H2SO4 was added at 50 μl/well to stop the reaction. The plate was read using a wavelength regulated multi-well spectrophotometer (SPECTRA MAX 190) at 490 nm.
The inhibition rate was calculated according to the following equation:
Inhibition rate (%)=(1−(ODcompound−ODblank)/(ODnegative−ODblank))×100%
IC50 value was calculated through a four-parameter fit according to the inhibition curve.
For orientation: In an ELISA, binding on a coated surface is turned into a signal by an enzyme label.

The next assay has as its system NIH3T3/TPR-Met cells. Put plainly: Cell proliferation mediated by c-Met, SRB assay, NIH3T3/TPR-Met cells. The class given is cell-based. Conditions: Mus musculus, NIH3T3, 72 h, read-out: inhibition rate (%) on proliferation of NIH3T3/TPR-Met cells. On the procedure: Three concentrations were set, and for each concentration, the test was carried out in triplicate wells. 72 h later, the culture medium was removed. The residue was fixed by precooled 10% TCA at 4° C. for 1 h, washed by distilled water for 5 times and dried at room temperature. […] The excess dye was removed by washed with 1% glacial acetic acid for 5 times and dried in air. At last, 150 μL of Tris-HCL solution (10 mM Tris, pH 10.0) was added to each well.

In a further assay the test system is NIH3T3 background cells. Put plainly: Cell proliferation, SRB assay, NIH3T3 background cells as control. The class given is cell-based. The following applies: Mus musculus, NIH3T3, 72 h, read-out: inhibition rate (%) on proliferation of NIH3T3 background cells. How it is done: NIH3T3/TPR-Met cells in the logarithmic growth phase and NIH3T3 background cells were seeded in a 96-well microcuture plate at 90111_, per well and cultivated overnight, followed by addition of 104 of the compound at different concentrations. Three concentrations were set, and for each concentration, the test was carried out in triplicate wells. 72 h later, the culture medium was removed. The residue was fixed by precooled 10% TCA at 4° C. for 1 h, washed by distilled water for 5 times and dried at room temperature. After that, 4 mg/mL of sulforodamine B (SRB) in 1% glacial acetic acid was added to each well (1004 per well) for staining at room temperature for 15 min. The excess dye was removed by washed with 1% glacial acetic acid for 5 times and dried in air. At last, 150 μL of Tris-HCL solution (10 mM Tris, pH 10.0) was added to each well. OD values were measured on a multi-well spectrophotometer at […].
Background: In SRB staining, fixed cells bind dye roughly in proportion to their protein.

Chain of c-Met tyrosine kinase (P08581 25-1390): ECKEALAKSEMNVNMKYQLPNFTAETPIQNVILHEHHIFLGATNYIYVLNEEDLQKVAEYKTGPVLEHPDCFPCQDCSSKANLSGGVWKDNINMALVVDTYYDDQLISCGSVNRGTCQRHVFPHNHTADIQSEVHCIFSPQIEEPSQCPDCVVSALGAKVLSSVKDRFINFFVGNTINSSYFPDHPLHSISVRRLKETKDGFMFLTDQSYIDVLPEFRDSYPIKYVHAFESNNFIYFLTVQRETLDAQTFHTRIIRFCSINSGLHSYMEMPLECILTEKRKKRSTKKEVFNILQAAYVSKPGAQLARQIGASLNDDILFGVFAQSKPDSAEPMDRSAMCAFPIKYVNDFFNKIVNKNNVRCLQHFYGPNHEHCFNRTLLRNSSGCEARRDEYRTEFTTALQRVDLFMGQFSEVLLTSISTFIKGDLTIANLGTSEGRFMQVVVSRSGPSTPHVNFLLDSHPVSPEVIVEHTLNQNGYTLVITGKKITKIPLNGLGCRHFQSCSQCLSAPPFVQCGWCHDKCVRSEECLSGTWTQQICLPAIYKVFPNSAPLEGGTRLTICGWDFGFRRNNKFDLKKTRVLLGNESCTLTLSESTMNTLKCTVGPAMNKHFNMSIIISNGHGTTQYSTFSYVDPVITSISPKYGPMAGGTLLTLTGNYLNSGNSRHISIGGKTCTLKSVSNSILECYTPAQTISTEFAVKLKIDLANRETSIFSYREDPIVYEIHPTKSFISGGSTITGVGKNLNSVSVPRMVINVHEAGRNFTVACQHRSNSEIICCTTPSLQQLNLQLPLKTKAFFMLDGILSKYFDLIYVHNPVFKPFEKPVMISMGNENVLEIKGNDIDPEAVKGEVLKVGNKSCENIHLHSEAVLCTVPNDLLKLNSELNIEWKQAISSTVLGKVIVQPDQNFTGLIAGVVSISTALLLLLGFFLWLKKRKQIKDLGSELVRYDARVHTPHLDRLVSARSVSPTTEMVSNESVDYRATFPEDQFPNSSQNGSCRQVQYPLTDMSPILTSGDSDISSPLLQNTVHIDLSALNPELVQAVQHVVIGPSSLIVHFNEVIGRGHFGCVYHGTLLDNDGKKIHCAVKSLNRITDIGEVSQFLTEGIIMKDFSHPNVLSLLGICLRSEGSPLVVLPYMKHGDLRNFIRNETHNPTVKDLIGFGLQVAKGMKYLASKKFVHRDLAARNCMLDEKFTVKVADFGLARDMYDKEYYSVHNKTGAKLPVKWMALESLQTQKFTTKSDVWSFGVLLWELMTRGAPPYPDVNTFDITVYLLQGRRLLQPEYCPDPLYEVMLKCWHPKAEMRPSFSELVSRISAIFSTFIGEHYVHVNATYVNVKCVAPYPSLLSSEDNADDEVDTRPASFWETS

For `COc1cc2nccc(OCc3nnc4ncc(-c5ccccc5)nn34)c2cc1OC` [II-17, 3-[(6,7-dimethoxy-4-quinolyl)oxymethyl]-6-phenyl-[1,2,4]triazolo[4,3-b][1,2,4]triazine], the IC50 against c-Met tyrosine kinase was determined as 2.9 nM. The inhibition at 10 µM in the assay with NIH3T3/TPR-Met cells is 65.2%; in the assay on NIH3T3 background cells, 1.2%.
For the molecule `COC(=O)c1ccc(-c2cnc3nnc(COc4ccnc5cc(OC)c(OC)cc45)n3n2)cc1` [II-18, 3-[(6,7-dimethoxy-4-quinolyl)oxymethyl]-6-(4-methoxyformylphenyl)-[1,2,4]triazolo[4,3-b] [1,2,4]triazine], at c-Met tyrosine kinase, it took 3.7 nM to reach half-maximal inhibition (IC50). For the same molecule, in the assay with NIH3T3/TPR-Met cells, the inhibition at 1 µM worked out at 5.6%, the inhibition at 10 µM stood at 22.9% and the inhibition at 50 µM is 82.6%. Moreover, in the assay on NIH3T3 background cells, the inhibition at 1 µM stood at 29.6%, the inhibition at 10 µM was 37.3% and the inhibition at 50 µM came to 63.5%.
In the case of `COc1cc2nccc(OCc3nnc4ncc(-c5ccc(OCc6ccccc6)cc5)nn34)c2cc1OC` [II-19, 3-[(6,7-dimethoxy-4-quinolyl)oxymethyl]-6-(4-benzyloxyphenyl)-[1,2,4]triazolo[4,3-b][1,2,4] triazine], the IC50 against c-Met tyrosine kinase came to 0.3 nM. Further, in the assay with NIH3T3/TPR-Met cells, the inhibition at 1 µM came to 6.55% and the inhibition at 50 µM amounted to 97%. In the assay with NIH3T3 background cells, the inhibition at 1 µM came out at 24.9%, the inhibition at 10 µM was 31.1% and the inhibition at 50 µM is 83.4%.
Turning to `COc1ccc2c(OCc3nnc4ncc(-c5ccc(Cl)c(Cl)c5)nn34)ccnc2c1` [II-20, 3-[(7-methoxy-4-quinolyl)oxymethyl]-6-(3,4-dichlorophenyl)-[1,2,4]triazolo[4,3-b][1,2,4] triazine], the IC50 against c-Met tyrosine kinase stood at 0.7 nM. Moreover, in the assay with NIH3T3/TPR-Met cells, the inhibition at 1 µM was 78.7%, the inhibition at 10 µM worked out at 89.4% and the inhibition at 50 µM worked out at 86.7%. For the same molecule, in the assay with NIH3T3 background cells, the inhibition at 1 µM turned out to be 10.4%, the inhibition at 10 µM worked out at 22.5% and the inhibition at 50 µM turned out to be 21.4%.
For `Fc1ccc(-c2cnc3nnc(COc4ccnc5ccccc45)n3n2)cc1` [II-21, 3-(4-quinolyloymethyl)-6-(4-fluorophenyl)-[1,2,4]triazolo[4,3-b][1,2,4]triazine], it took 0.81 nM to reach half-maximal inhibition on c-Met tyrosine kinase (IC50). Moreover, in the assay on NIH3T3/TPR-Met cells, the inhibition at 1 µM was determined as 24.6%, the inhibition at 10 µM was 81.4% and the inhibition at 50 µM came to 84.3%. Besides, in the assay with NIH3T3 background cells, the inhibition at 1 µM came to 28.9%, the inhibition at 10 µM was determined as 53.9% and the inhibition at 50 µM turned out to be 57.5%.
Regarding `c1ccc(-c2cnc3nnc(COc4ccnc5ccccc45)n3n2)cc1` [II-22, 3-(4-quinolyloxymethyl)-6-phenyl-[1,2,4] triazolo[4,3-b][1,2,4]triazine], on c-Met tyrosine kinase, the midpoint of inhibition, the IC50, lay at 0.7 nM. In the assay with NIH3T3/TPR-Met cells, the inhibition at 1 µM amounted to 63.9%, the inhibition at 10 µM worked out at 81.7% and the inhibition at 50 µM was 78.8%. In the assay on NIH3T3 background cells, the inhibition at 1 µM stood at 38.6%, the inhibition at 10 µM turned out to be 53.8% and the inhibition at 50 µM is 48.1%.
`COc1ccc(-c2cnc3nnc(COc4ccnc5ccccc45)n3n2)cc1` [II-23, 3-(4-quinolyloxymethyl)-6-(4-methoxyphenyl)-[1,2,4]triazolo[4,3-b][1,2,4]triazine]: inhibition at c-Met tyrosine kinase was half-maximal at 0.88 nM (IC50). In the assay on NIH3T3/TPR-Met cells, the inhibition at 1 µM amounted to 29%, the inhibition at 10 µM stood at 83.2% and the inhibition at 50 µM worked out at 88.5%. For the same molecule, in the assay on NIH3T3 background cells, the inhibition at 1 µM is 22.8%, the inhibition at 10 µM turned out to be 49.8% and the inhibition at 50 µM turned out to be 31.3%.
The molecule `Oc1ccc(-c2cnc3nnc(COc4ccnc5ccccc45)n3n2)cc1` [II-24, 3-(4-quinolyloxymethyl)-6-(4-hydroxyphenyl)-[1,2,4]triazolo[4,3-b][1,2,4]triazine] displayed an IC50 against c-Met tyrosine kinase of 0.78 nM. For the same molecule, in the assay with NIH3T3/TPR-Met cells, the inhibition at 1 µM was determined as 5.3%, the inhibition at 10 µM came out at 53.1% and the inhibition at 50 µM turned out to be 70.6%. In the assay with NIH3T3 background cells, the inhibition at 1 µM was 17.1%, the inhibition at 10 µM amounted to 25.1% and the inhibition at 50 µM came to 28.4%.

For orientation: IC50 means the concentration that gives 50% inhibition. Read a low IC50 as greater potency in that assay.

The values are drawn from US20130324542A1, “[1,2,4]TRIAZOLO[4,3-B][1,2,4]TRIAZINE COMPOUNDS, PREPARATION METHOD AND USE THEREOF” (SHANGHAI INSTITUTE OF MATERIA MEDICA, CHINESE ACADEMY OF …, priority 2010, published 2013).
